Data reported in patent US10828299B2 (Gilead Sciences, Inc., priority 2013, dated 2020).

Test system: human hepatocytes
Experiment: Human Hepatocyte Stability Assay
Format: in vitro ADME
Conditions: comparison table with known compounds; head prints (units)
Procedure: The human […] stability of the compounds as predicted hepatocyte clearance in L/hr/kg was assessed. Compounds to be tested were diluted to 200 μM (4 μl of 10 mM DMSO stock into 196 μl ACN:H2O (50:50). Propranolol was used as a positive control, and buffer only without hepatocytes as 0% control. These were further diluted 4 μl with 891 μl KHB buffer (InVitroGRO catalog number Z99074) to provide 2× dosing solution. To each well of 24 well plate, 250 μl of the 2× dosing solution was added to each well with 250 μl of hepatocytes cells (1×10^6 viable cells/ml per well) or KHB for control samples to achieve a final compound concentration of 1 μM during incubation. The final solvent concentration was 0.01% DMSO and 0.25% ACN. The culture plate was placed on a rocker and incubated at 37° C., 5% CO2. Samples were collected at time 0, 1, 3, and 6 hours. The loss of parent compound was determined using LC-MS methods against a standard curve.

In order of rising “Hheps CL” value:
1. Cc1ncc(-c2cn3ccnc3c(Nc3ccc(N4CCN(C5COC5)CC4)c(OCCO)c3)n2)nc1N [Ex.-7, 2-(5-((6-(6-amino-5-methylpyrazin-2-yl)imidazo[1,2-a]pyrazin-8-yl)amino)-2-(4-(oxetan-3-yl)piperazin-1-yl)phenoxy)ethanol]  0.83 mL/min/kg
2. Nc1cncc(-c2cn3ccnc3c(Nc3ccc(N4CCN(C5COC5)CC4)cc3)n2)n1 [Ex.-2, 6-(6-aminopyrazin-2-yl)-N-(4-(4-(oxetan-3-yl)piperazin-1-yl)phenyl)imidazo[1,2-a]pyrazin-8-amine]  0.917 mL/min/kg
3. Nc1cncc(-c2cn3ccnc3c(Nc3ccc(N4CCN(C5COC5)CC4)c(OCCO)c3)n2)n1 [Ex.-5, 2-(5-((6-(6-aminopyrazin-2-yl)imidazo[1,2-a]pyrazin-8-yl)amino)-2-(4-(oxetan-3-yl)piperazin-1-yl)phenoxy)ethanol]  1.2 mL/min/kg
4. Cc1c(-c2cncc(N)n2)nc(Nc2ccc(N3CCN(C4COC4)CC3)cc2)c2nccn12 [Ex.-4, 6-(6-aminopyrazin-2-yl)-5-methyl-N-(4-(4-(oxetan-3-yl)piperazin-1-yl)phenyl)imidazo[1,2-a]pyrazin-8-amine]  1.3 mL/min/kg
5. Nc1cncc(-c2cn3ccnc3c(Nc3ccc(N4CCN(CC(CO)CO)CC4)cc3)n2)n1 [Ex.-6, 2-((4-(4-((6-(6-aminopyrazin-2-yl)imidazo[1,2-a]pyrazin-8-yl)amino)phenyl)piperazin-1-yl)methyl)propane-1,3-diol]  1.3 mL/min/kg
6. Nc1cncc(-c2cn3ccnc3c(Nc3ccc(N4CCO[C@@H](CO)C4)cc3)n2)n1 [Ex.-3, (R)-(4-(4-((6-(6-aminopyrazin-2-yl)imidazo[1,2-a]pyrazin-8-yl)amino)phenyl)morpholin-2-yl)methanol]  1.5 mL/min/kg
7. Cc1ncc(-c2cn3ccnc3c(Nc3ccc(N4CCN(C5COC5)CC4)cc3)n2)nc1N [Ex.-1, 6-(6-amino-5-methylpyrazin-2-yl)-N-(4-(4-(oxetan-3-yl)piperazin-1-yl)phenyl)imidazo[1,2-a]pyrazin-8-amine]  2 mL/min/kg
8. COc1ccc(Nc2nc(-c3cccc(N)c3)cn3ccnc23)cc1OC [6-(3-aminophenyl)-N-(3,4-dimethoxyphenyl)imidazo[1,2-a]pyrazin-8-amine, reference compound]  4 mL/min/kg
9. Nc1cncc(-c2cn3ccnc3c(Nc3ccc(N4CCOCC4)cc3)n2)c1 [6-(5-aminopyridin-3-yl)-N-(4-morpholinophenyl)imidazo[1,2-a]pyrazin-8-amine, reference compound]  11.3 mL/min/kg
10. Cc1ncc(-c2cn3ccnc3c(Nc3ccc(N4CCOCC4)cc3)n2)cc1N [6-(5-amino-6-methylpyridin-3-yl)-N-(4-morpholinophenyl)imidazo[1,2-a]pyrazin-8-amine, reference compound]  13.3 mL/min/kg
11. COc1ccc(Nc2nc(-c3ccc(N)nc3)cn3ccnc23)cc1OC [6-(6-aminopyridin-3-yl)-N-(3,4-dimethoxyphenyl)imidazo[1,2-a]pyrazin-8-amine, reference compound]  15 mL/min/kg
